Data set [1] concerns differentiated SH-SY5Y human neuroblastoma cells. Briefly: LDH assay, neuroprotective effects against Aβ1-42 cytotoxicity. The data set is classed as cell-based. To be noted: with 20 µM Aβ1-42, 24 h. The protocol:
Cell cultures and differentiation: SH-SY5Y cell line were growth in DMEM:F12 (1:1) media including 10% FBS and 1% penicillin/streptomycin at 37 °C and 5% CO2 until cells reach confluence. Then, cells harvested via using trypsin/EDTA solution and transferred to 48 well plates. For differentiation, media were changed to supplemented media with 10 µg/mL retinoic acid and incubated for 5 days. Finally, media were changed into serum free media supplementing with both 10 µM retinoic acid and 25 ng/mL BDNF.
(§1) Cytotechnol. 2015; 67:299-309.
(§2) Control cells (n = 6) were cultured under normal conditions. 1% Triton X, ascorbic acid (10 µM) and hydrogen peroxide (H2O2, 25 µM) were used as positive controls for cell viability, TAC and TOS analysis, respectively.
The cultures without BLA, MEM, or LA were studied as negative control group. 1% Triton-X was added to the culture media to provide negative control group.

The test system of data set [2] is differentiated SH-SY5Y cells. Briefly: TAC and TOS analysis in cellular model of Alzheimer's disease. It is filed as cell-based, human. To be noted: co-treatment with Aβ1-42. Here is the method: TAC and TOS analysis: the automated TAC and TOS assays were carried out by commercially available kits (Rel Assay^(R) Diagnostics, Gaziantep, Turkey) on samples from the cultures.
as §2
Figure 5 and 6 show the effects of BLA and MEM treatments on TAC and TOS levels in cellular model of Alzheimer's disease, respectively.

For data set [3], the system named is cultured human lymphocytes. Briefly: SCE assay (genotoxicity). It is filed as cell-based. Here is the method: (§3) All volunteers have signed informed consent.
SCE assay: to provide successive visualization of SCEs, 5-bromo-2-deoxyuridine was added at culture cells. Exactly 70 h and 30 min after beginning of the incubations, demecolcine ([…]) was added to the cultures. After hypotonic treatment (0.075 M KCl), followed by three repetitive cycles of fixation in methanol/acetic acid solution (3:1, v/v), centrifugation and re-suspension, the cell suspension was dropped onto chilled, grease-free microscopic slides, air-dried, aged for three days, and then differentially stained for the inspection of the SCE rate according to the fluorescence plus Giemsa (FPG) procedure. For each treatment condition, well-spread twenty-five second division metaphases containing 42-46 chromosomes per cell were scored and the values obtained were calculated as SCEs per cell.
The frequencies of sister chromatid exchanges (SCEs) with increasing BLA concentrations were investigated in cultured human lymphocytes.

Data set [4] addresses T1, acetylcholinesterase (AChE) (Homo sapiens, UniProt P22303).
T1 construct: endogenous in cells
As to the kind of experiment: AChE activity in cellular model of Alzheimer's disease. The data set is classed as cell-based. To be noted: with 20 µM Aβ1-42, 24 h. Here is the method:
Determination of AChE activity: the activity of AChE within the cellular Alzheimer Disease's model was measured by the Acetylcholinesterase Assay Kit (Colorimetric) from Abcam^(R) (Cambridge, MA, USA) according to the manufacturer's recommended protocol.
AChE activity was evaluated in differentiated SH-SY5Y cells treated with BLA, LA, MEM (25 and 50 µM) or media alone for 24 h.

In data set [5] the test system is cultured human blood cells. Briefly: Nucleic acid oxidation, 8-hydroxy-2'-deoxyguanosine assay. It is filed as cell-based.
Text: as §3
Nucleic acid oxidation: 8-hydroxy-2'-deoxyguanosine assay kits (Cayman Chemical®) was used for determining 8- OH-dG levels in the cultures. It is a competitive assay that can be used for the quantification of 8-OHdG in homogenates and recognizes both free 8-OHdG and DNA-incorporated 8-OH-dG. This assay depends on the competition between 8-OH-dG and 8-OH-dGacetylcholinesterase (AChE) conjugate for a limited amount of 8-OH-dG monoclonal antibody (Abdel-Wahab BA, Metwally ME. Ginkgo biloba enhances the anticonvulsant and neuroprotective effects of sodium valproate against kainic acid-induced seizures in mice. J Pharmacol Toxicol. 2011; 6:679-690). All procedures were carried out in accordance with the provider's manual.
The levels of 8-OH-dG, a sensitive marker of oxidative DNA damage, were quantified about mitomycin (MMC) treatment. […] On the contrary, 8-OH-dG levels were not increased in the blood cells that were treated with BLA, MEM, and LA concentrations.

The subject of data set [6] is differentiated SH-SY5Y human neuroblastoma cells. Briefly: MTT assay, neuroprotective effects against Aβ1-42 cytotoxicity. The data set is classed as cell-based. Particulars: 24 h, read-out: increase in the cell viability (MTT assay). The protocol:
Cell cultures and differentiation: SH-SY5Y cell line were growth in DMEM:F12 (1:1) media including 10% FBS and 1% penicillin/streptomycin at 37 °C and 5% CO2 until cells reach confluence. Then, cells harvested via using trypsin/EDTA solution and transferred to 48 well plates. For differentiation, media were changed to supplemented media with 10 µg/mL retinoic acid and incubated for 5 days. Finally, media were changed into serum free media supplementing with both 10 µM retinoic acid and 25 ng/mL BDNF. Differentiated cells were determined under invert microscope and the cells were used within 10 days (Encinas M, Iglesias M, Liu Y, Wang H, Muhaisen A, Ceña V, Gallego C, Comella JX. Sequential treatment of SH-SY5Y cells with retinoic acid and brain-derived neurotrophic factor gives rise to fully differentiated, neurotrophic factor-dependent, human neuron-like cells. J. Neurochem. 2002; 75:991-1003 e Cheung YT, Lau WKW, Yu MS, Lai CSW, Yeung SC, So KF, Chang RCC. Effects of all-trans-retinoic acid on human SH-SY5Y neuroblastoma as in vitro model in neurotoxicity research. Neurotoxicol. 2009; 30:127-135).
as §2
The cultures without BLA, MEM, or LA were studied as negative control group. 1% Triton-X was added to the culture media to provide negative control group. MTT reduction and LDH release observed after 24 h of Aβ1-42-exposure at 20 µM.
(Tetrazolium assays rely on reduction of a dye to a coloured formazan, in cell work by metabolically active cells.)

For data set [7], the system named is SHSY-5Y human neuroblastoma cell line. As to the kind of experiment: Antitumor activity, MTT and LDH assays. It is filed as cell-based. To be noted: dose-dependent. The protocol:
as §1
Antitumor activity of BLA and MEM was tested on SHSY-5Y human neuroblastoma cell line using MTT and LDH assays. Cells were grown to near-confluency before treatment. Growth of the cell line was inhibited by both drug application in a dose-dependent manner.

For data set [8], the system named is differentiated SH-SY5Y cells. Briefly: Apoptosis detection by Hoechst 33258 staining. The data set is classed as cell-based, human. To be noted: 25 and 50 µM co-treatment, 20 µM Aβ1-42, 24 h. Here is the method: Apoptosis detection by Hoechst 33258 staining: Hoechst 33258 staining was used to detect apoptotic nuclei. […] Then, cells fixed with 4% paraformaldehyde in phosphate buffered saline at 4 °C for 30 min. After washing cells with PBS, the nuclear DNAs were incubated with […] Hoechst 33258 fluorescent dye for 5 min at room temperature. Cells were observed and photographed under a fluorescence microscopy (Leica® DM IL LED).

The next data set concerns human neuron-like cells. As to the kind of experiment: Apoptosis-Necrosis assay (Annexin V-FITC/PI flow cytometry). The data set is classed as cell-based. To be noted: concentration not given. The protocol:
Apoptosis-Necrosis assay: the frequencies of viable, apoptotic and necrotic cells were detected with the Annexin V-FITC apoptosis detection Kit I (BD Pharmingen, USA). Briefly, 5 x 10^4 cells were collected by centrifugation and cells resuspended in 500 µL of 1X binding buffer. Then, 5 µL of Annexin V-FITC and 5 µl of propidium iodide (PI 50 µg/ml) were added to the cultures and incubated 5 min in the dark. After that, cells fixed with 4% paraformaldehyde in phosphate buffered saline at 4 °C for 30 min. Cells from each well were stained according to the manufacturer's instructions and analyzed using a flow cytometer (CyFlow Cube 6, Partec, Germany). A computer system was used for data acquisition and analysis. Four different populations of cells are detected with the Annexin V-FITC kit: viable cells that are annexin negative and PI negative and express no fluorescence, early apoptotic cells that are annexin positive and PI negative and that express green fluorescence, late apoptotic/necrotic cells that are annexin positive and PI positive and that express green and orange fluorescence, necrotic cells that are annexin negative and PI positive and that express orange fluorescence (Majstorovic I, Vucevic D, Pavlovic B, Vasilijic S, Colic M. An anti-DEC-205 monoclonal antibody stimulates binding of thymocytes to rat thymic dendritic cells and promotes apoptosis of thymocytes. Cent Eur J Immunol. 2014; 39:411-418) .
BLA was considered as more able to protect the human neuron-like cells from Aβ1-42-induced necrosis and late apoptosis than LA or MEM.
Background: In flow cytometry, cells or beads pass a laser one at a time.

For data set [9] the following is noted: cited from earlier work.

T1 sequence (P22303 32-614): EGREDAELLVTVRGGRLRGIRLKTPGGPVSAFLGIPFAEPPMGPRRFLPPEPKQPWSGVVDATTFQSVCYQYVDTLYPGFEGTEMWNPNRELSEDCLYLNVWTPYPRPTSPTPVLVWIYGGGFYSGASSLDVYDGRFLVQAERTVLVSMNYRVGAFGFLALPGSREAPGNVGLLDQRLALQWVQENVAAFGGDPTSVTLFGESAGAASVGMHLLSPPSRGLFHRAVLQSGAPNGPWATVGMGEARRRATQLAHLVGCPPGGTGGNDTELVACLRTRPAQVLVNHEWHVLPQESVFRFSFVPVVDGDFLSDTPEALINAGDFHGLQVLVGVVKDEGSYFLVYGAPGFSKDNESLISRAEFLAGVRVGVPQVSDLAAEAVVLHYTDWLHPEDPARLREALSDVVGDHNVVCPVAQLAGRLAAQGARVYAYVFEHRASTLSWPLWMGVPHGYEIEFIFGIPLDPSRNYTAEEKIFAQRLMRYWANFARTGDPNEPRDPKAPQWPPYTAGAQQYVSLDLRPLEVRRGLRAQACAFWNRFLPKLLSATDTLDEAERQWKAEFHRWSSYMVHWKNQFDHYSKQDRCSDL

Consider `CC12CC3CC(C)(C1)CC(N)(C3)C2` [MEM, memantine], for which the “increase in the cell viability (inhibited LDH release)” value in data set [1] (25 µM) turned out to be 56.81%; in data set [1] (50 µM) it was 59.15%; in data set [1] (100 µM) it was 57.28%. Further, the “Aβ1-42-induced decreases of TAC and increases of TOS levels” value in [2] is reported as “modulated”. For the same compound, the “frequencies of sister chromatid exchanges (SCEs)” value in data set [3] is recorded as “not higher than the control group”. Moreover, the “reduced Aβ-induced AChE activity” value was found to be 14.57% in data set [4] (25 µM) and 19.47% in [4] (50 µM). In addition, in data set [5], the 8-OH-dG levels result is “not increased”. For the same compound, the viability at 25 µM in data set [6] is 17.3%. In addition, the viability at 50 µM in data set [6] worked out at 19.4%. Besides, in [6], the viability at 100 µM was determined as 17.1%. Further, the “antitumor effects (growth inhibition)” value in [7] was “moderate antitumor effects”. Moreover, the “nuclear integrity and apoptosis by Aβ1-42 (Hoechst 33258)” value in [8] was “protected nuclear integrity and inhibited apoptosis”. Also, the “decreased the necrotic cell percentage by Aβ1-42” value in the data set with human neuron-like cells came out at 65.97%.

With `CO[C@@]12[C@H](COC(N)=O)C3=C(C(=O)C(C)=C(N)C3=O)N1C[C@@H]1N[C@@H]12` [MMC, mitomycin], the 8-OH-dG concentrations entry in [5] (10^-7 M, 24 h, positive control) is “significantly increased”.

Regarding `N[C@@H](Cc1ccc(B(O)O)cc1)C(=O)O` [p-borophenyalanine], the “safe for humans at doses up to” value in data set [9] is “up to 900 mg/kg”.

Usually viability stands for the share of living cells, or the viability signal relative to a control.

Values taken from patent EP3495372B1 (priority 2017, dated 2019).
